According to patent publication US20110319392A1, “Thiazole Sulfonamide And Oxazole Sulfonamide Kinase Inhibitors” (priority 2009, published 2011):
Counter-ions that a name gives are not always drawn.

What was measured:
[1] = system: HN5 tumor cells; assay: Cell growth inhibition assay (CellTiter-Glo), HN5; type: cell-based, Human; conditions: Homo sapiens, 72 h; 3 days incubation
Protocol: (§1) Human breast tumor cells (BT474) were cultured in RPMI (Mediatech […]), containing 10% FBS (JRH Biosciences 12176) and 1% penicillin-streptomycin (Invitrogen 15140). Human head and neck tumor cells (HN5) were cultured in high glucose DMEM (Mediatech 50-013-PB) containing 10% FBS and 1% penicillin-streptomycin. Human colon tumor cells (Colo205) were cultured in RPMI (Mediatech 50-020-PB) containing 10% FBS and 1% penicillin-streptomycin. Human melanoma cancer cells (SK-MEL-28) were cultured in EMEM with nonessential amino acids (Mediatech 50-011-PB) containing 10% FBS, 1% sodium pyruvate (JT Baker 3354-04), and 1% penicillin-streptomycin. Human melanoma cancer cells (A375P F11s) were cultured in RPMI (Mediatech 50-020-PB) containing 10% FBS, 1% sodium pyruvate, and 1% penicillin-streptomycin. Human colon cancer cells (HT-29) were cultured in high glucose DMEM (Mediatech 50-013-PB) containing 10% FBS and 1% penicillin-streptomycin. Human melanoma cancer cells (SK-MEL-3) were cultured in McCoy's 5A (50-025-PB) containing 15% FBS, and 1% penicillin-streptomycin. All cell lines were maintained at 37° C. in a humidified 5% CO2, 95% air incubator. Cells were harvested using trypsin/EDTA (Invitrogen 25200), counted using a haemocytometer, and plated. For 96-well assays (using white full-area NUNC plates cat. #136102), cells were plated in 105 μL at the following densities (cells/well): HNS, 500; Colo 205, 500; SK-MEL-28, 500; A375P F11s, 500; HT-29, 500; SK-MEL-3, 500; and BT474, 3000. For 384-well assays (white full-area NUNC plates, cat. #781080), cells were plated in 48 μL at the following densities (cells/well): HNS, 500; Colo205, 500; SK-MEL-28, 500; A375P F11s, 500; HT-29, 500; SK-MEL-3, 500; and BT474, 2000.
(§2) The next day, compounds were diluted as follow: For 96-well assays, 13.5 μL of compound in DMSO were diluted using nine (9) serial 1:3 dilutions of 4.5 μL in 9 of DMSO. Medium (270 μL/well of RPMI with 10% FBS and 1% penicillin-streptomycin) was added to the plates. Aliquots (7 μL) were added to cells in the final assay giving a final DMSO concentration of 0.2%. For 384-well assays, 15 μL of compound in DMSO were diluted using nine (9) serial 1:3 dilutions of 5 μL in 10 μL of DMSO, followed by a further dilution of 5 μL of compound with 95 μL of medium, of which 2 μL were added to cells in the final assay giving a final DMSO concentration of 0.2%. Cells were incubated at 37° C., 5% CO2 for 3 days.
(§3) Total ATP was measured (as a surrogate estimate of cell number) using CellTiter-Glo® reagent (Promega G7571). Briefly, plates were removed from the incubator and allowed to equilibrate to room temperature for 30 minutes. CellTiter-Glo® (25 μL or 55 μL for 384-well or 96-well assays, respectively) reagent was added to each well and plates were shaken on an orbital plate shaker for 2 minutes. Plates were incubated without shaking for a further 30 minutes and read on an LJL Analyst GT reader in luminometer mode with an integration time of 0.5 seconds per well. Percent inhibition of cell growth was calculated relative to DMSO vehicle-treated control wells. Concentration of compound required to give 50% inhibition of vehicle-treated control cell growth (IC50) was interpolated using a 4-parameter fit for determining IC50 using the following equation: Y=A +((B−A)/(1+((C/X)̂D))) where […].

[2] = system: SK-MEL-3 tumor cells; assay: Cell growth inhibition assay (CellTiter-Glo), SK-MEL-3; type: cell-based, Human; conditions: Homo sapiens, SK-MEL3
Protocol: as §1, §2, §3

[3] = system: SK-MEL-28 tumor cells; assay: Cell growth inhibition assay (CellTiter-Glo), SK-MEL-28; type: cell-based, Human; conditions: Homo sapiens, SK-MEL-28, 72 h; 3 days incubation
Outline: (§4)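 Cells plated at 500 cells/well in their growth media, dosed next day with nine-step 1:3 compound dilutions (final DMSO 0.2%), then incubated 3 days at 37° C, 5% CO2. Total ATP read by CellTiter-Glo luminescence as a surrogate for cell number; IC50 interpolated from 4-parameter fit versus DMSO controls.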

[4] = system: BT474 tumor cells; assay: Cell growth inhibition assay (CellTiter-Glo), BT474; type: cell-based, Human; conditions: Homo sapiens, BT-474, 72 h, 3 days incubation
Protocol: as §1, §2, §3

[5] = target: B-Raf (Homo sapiens, UniProt P15056); assay: B-Raf Accelerated MEK ATPase assay (BRAMA), Method A or B; type: biochemical; conditions: Method B: final MEK 150 nM, single end point read
Outline: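 Activated Raf plus non-phosphorylated MEK drives MEK-mediated ATP hydrolysis; ADP formation coupled via pyruvate kinase/lactate dehydrogenase to NADH oxidation. Method A read kinetically; Method B used 150 nM final MEK and a single end-point read.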

[6] = system: HT-29 tumor cells; assay: Cell growth inhibition assay (CellTiter-Glo), HT-29; type: cell-based, Human; conditions: Homo sapiens
Protocol: as §1, §2, §3

[7] = system: Colo205 tumor cells; assay: Cell growth inhibition assay (CellTiter-Glo), Colo205; type: cell-based, Human; conditions: Homo sapiens, COLO 205, 72 h; 3 days incubation
Outline: as §4

[8] = system: A375P F11s tumor cells; assay: Cell growth inhibition assay (CellTiter-Glo), A375P F11s; type: cell-based, Human; conditions: Homo sapiens
Protocol: as §1, §2, §3

B-Raf, sequence (P15056 whole entry): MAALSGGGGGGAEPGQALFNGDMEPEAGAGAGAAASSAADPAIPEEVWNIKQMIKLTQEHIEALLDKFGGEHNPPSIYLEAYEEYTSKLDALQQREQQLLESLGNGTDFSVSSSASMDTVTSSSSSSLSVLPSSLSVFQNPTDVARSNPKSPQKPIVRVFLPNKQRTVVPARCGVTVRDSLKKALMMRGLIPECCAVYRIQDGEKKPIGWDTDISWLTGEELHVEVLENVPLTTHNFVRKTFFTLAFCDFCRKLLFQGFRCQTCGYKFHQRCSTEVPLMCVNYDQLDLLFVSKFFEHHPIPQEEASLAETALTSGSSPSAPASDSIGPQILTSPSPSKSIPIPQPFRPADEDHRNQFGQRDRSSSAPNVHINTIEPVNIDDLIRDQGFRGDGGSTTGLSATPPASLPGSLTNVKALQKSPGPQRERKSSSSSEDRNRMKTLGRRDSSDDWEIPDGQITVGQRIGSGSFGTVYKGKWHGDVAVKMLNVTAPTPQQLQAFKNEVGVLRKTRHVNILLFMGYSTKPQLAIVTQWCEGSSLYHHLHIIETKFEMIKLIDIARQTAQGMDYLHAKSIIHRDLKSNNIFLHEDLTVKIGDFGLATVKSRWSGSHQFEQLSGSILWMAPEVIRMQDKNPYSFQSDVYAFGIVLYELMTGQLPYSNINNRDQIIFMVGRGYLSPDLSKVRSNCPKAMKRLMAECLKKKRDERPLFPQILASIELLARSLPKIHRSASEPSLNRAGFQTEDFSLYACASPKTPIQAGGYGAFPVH

SMILES: CC(C)c1nc(-c2cccc(NS(=O)(=O)c3c(F)cccc3F)c2)c(-c2ccnc(Nc3ccc(N4CCN(CCS(C)(=O)=O)CC4)c(F)c3)n2)s1 [Example 16, 2,6-Difluoro-N-{3-[5-{2-[(3-fluoro-4-{4-[2-(methylsulfonyl)ethyl]-1-piperazinyl}phenyl)amino]-4-pyrimidinyl}-2-(1-methylethyl)-1,3-thiazol-4-yl]ohenyl}benzenesulfonamide hydrochloride]
- IC50 [1]: 100 to 1000 nM
- IC50 [2]: < 100 nM
- IC50 [3]: < 100 nM
- IC50 [4]: > 1000 nM
- IC50 [5]: < 100 nM
- IC50 [6]: < 100 nM
- IC50 [7]: < 100 nM
- IC50 [8]: < 100 nM

SMILES: CC(C)c1nc(-c2cccc(NS(=O)(=O)c3c(F)cccc3F)c2)c(-c2ccnc(Nc3ccc(N4CCOCC4)nc3)n2)s1 [Example 17, 2,6-Difluoro-N-{3-[2-(1-methylethyl)-5-(2-{[6-(4-morpholinyl)-3-pyridinyl]amino}-4-pyrimidinyl)-1,3-thiazol-4-yl]phenyl}benzenesulfonamide]
- IC50 [1]: 100 to 1000 nM
- IC50 [2]: < 100 nM
- IC50 [3]: < 100 nM
- IC50 [4]: > 1000 nM
- IC50 [5]: < 100 nM
- IC50 [6]: < 100 nM
- IC50 [7]: < 100 nM
- IC50 [8]: < 100 nM

SMILES: COc1ccc(Nc2nccc(-c3sc(C(C)C)nc3-c3cccc(NS(=O)(=O)c4c(F)cccc4F)c3)n2)cc1N(C)C [Example 18, N-{3-[5-(2-{[3-(Dimethylamino)-4-(methyloxy)phenyl]amino}-4-pyrimidinyl)-2-(1-methylethyl)-1,3-thiazol-4-yl]phenyl}-2,6-difluorobenzenesulfonamide trifluoroacetate]
- IC50 [1]: 100 to 1000 nM
- IC50 [2]: < 100 nM
- IC50 [3]: < 100 nM
- IC50 [4]: > 1000 nM
- IC50 [5]: < 100 nM
- IC50 [6]: < 100 nM
- IC50 [7]: < 100 nM
- IC50 [8]: < 100 nM

SMILES: COc1cc(N2CCN(CCS(C)(=O)=O)CC2)c(C)cc1Nc1nccc(-c2sc(C(C)C)nc2-c2cccc(NS(=O)(=O)c3c(F)cccc3F)c2)n1 [Example 19]
- IC50 [1]: > 1000 nM
- IC50 [2]: 100 to 1000 nM
- IC50 [3]: 100 to 1000 nM
- IC50 [4]: > 1000 nM
- IC50 [5]: < 100 nM
- IC50 [6]: > 1000 nM
- IC50 [7]: < 100 nM
- IC50 [8]: 100 to 1000 nM

SMILES: COc1cc(N2CCC(N3CCN(CCS(C)(=O)=O)CC3)CC2)ccc1Nc1nccc(-c2sc(C(C)C)nc2-c2cccc(NS(=O)(=O)c3c(F)cccc3F)c2)n1 [Example 20, 2,6-Difluoro-N-{3-[2-(1-methylethyl)-5-(2-{[2-(methyloxy)-4-(4-{4-[2-(methylsulfonyl)ethyl]-1-piperazinyl}-1-piperidinyl)phenyl]amino}-4-pyrimidinyl)-1,3-thiazol-4-yl]phenyl}benzenesulfonamide]
- IC50 [1]: > 1000 nM
- IC50 [2]: 100 to 1000 nM
- IC50 [3]: < 100 nM
- IC50 [4]: > 1000 nM
- IC50 [5]: < 100 nM
- IC50 [6]: > 1000 nM
- IC50 [7]: < 100 nM
- IC50 [8]: 100 to 1000 nM

SMILES: O=S(=O)(Nc1cccc(-c2nc(N3CCCC3)sc2-c2ccnc(Nc3ccc(N4CCN(CCF)CC4)c(F)c3)n2)c1)c1c(F)cccc1F [Example 21, 2,6-Difluoro-N-{3-[5-[2-({3-fluoro-4-[4-(2-fluoroethyl)-1-piperazinyl]phenyl}amino)-4-pyrimidinyl]-2-(1-pyrrolidinyl)-1,3-thiazol-4-yl]phenyl}benzenesulfonamide]
- IC50 [1]: 100 to 1000 nM
- IC50 [2]: < 100 nM
- IC50 [3]: < 100 nM
- IC50 [4]: > 1000 nM
- IC50 [5]: < 100 nM
- IC50 [6]: < 100 nM
- IC50 [7]: < 100 nM
- IC50 [8]: < 100 nM

SMILES: CC(C)c1nc(-c2ccc(F)c(NS(=O)(=O)c3ccccc3F)c2)c(-c2ccnc(Nc3ccc(N4CCN(CCS(C)(=O)=O)CC4)c(F)c3)n2)s1 [Example 22, 2-Fluoro-N-{2-fluoro-5-[5-{2-[(3-fluoro-4-}4-[2-(methylsulfonyl)ethyl]-1-piperazinyl}phenyl)amino]-4-pyrimidinyl}-2-(1-methylethyl)-1,3-thiazol-4-yl]phenyl}benzenesulfonamide hydrochloride]
- IC50 [1]: > 1000 nM
- IC50 [2]: 100 to 1000 nM
- IC50 [3]: < 100 nM
- IC50 [4]: > 1000 nM
- IC50 [5]: < 100 nM
- IC50 [6]: 100 to 1000 nM
- IC50 [7]: < 100 nM
- IC50 [8]: < 100 nM

SMILES: CC(C)c1nc(-c2ccc(F)c(NS(=O)(=O)c3c(F)cccc3F)c2)c(-c2ccnc(Nc3ccc(N4CCOCC4)nc3)n2)s1 [Example 23, 2,6-Difluoro-N-{2-fluoro-5-[2-(1-methylethyl)-5-(2-{[6-(4-morpholinyl)-3-pyridinyl]amino}-4-pyrimidinyl)-1,3-thiazol-4-yl]phenyl}benzenesulfonamide]
- IC50 [1]: > 1000 nM
- IC50 [2]: < 100 nM
- IC50 [3]: < 100 nM
- IC50 [4]: > 1000 nM
- IC50 [5]: < 100 nM
- IC50 [6]: < 100 nM
- IC50 [7]: < 100 nM
- IC50 [8]: < 100 nM

SMILES: CC(C)c1nc(-c2ccc(F)c(NS(=O)(=O)c3c(F)cccc3F)c2)c(-c2ccnc(Nc3ccc(N4CCC(C#N)CC4)nc3)n2)s1 [Example 24, N-{5-[5-(2-{[6-(4-Cyano-1-piperidinyl)-3-pyridinyl]amino}-4-pyrimidinyl)-2-(1-methylethyl)-1,3-thiazol-4-yl]-2-fluorophenyl}-2,6-difluorobenzenesulfonamide]
- IC50 [1]: > 1000 nM
- IC50 [2]: 100 to 1000 nM
- IC50 [3]: < 100 nM
- IC50 [4]: > 1000 nM
- IC50 [5]: < 100 nM
- IC50 [6]: < 100 nM
- IC50 [7]: < 100 nM
- IC50 [8]: < 100 nM

SMILES: CC(C)c1nc(-c2ccc(F)c(NS(=O)(=O)c3c(F)cccc3F)c2)c(-c2ccnc(Nc3ccc(N4CCN(CCF)CC4)c(F)c3)n2)s1 [Example 25]
- IC50 [1]: > 1000 nM
- IC50 [2]: 100 to 1000 nM
- IC50 [3]: 100 to 1000 nM
- IC50 [4]: > 1000 nM
- IC50 [5]: < 100 nM
- IC50 [6]: 100 to 1000 nM
- IC50 [7]: < 100 nM
- IC50 [8]: 100 to 1000 nM

SMILES: O=S(=O)(Nc1cc(-c2nc(N3CCCC3)sc2-c2ccnc(Nc3ccc(N4CCOCC4)nc3)n2)ccc1F)c1c(F)cccc1F [Example 26, 2,6-Difluoro-N-{2-fluoro-5-[5-(2-{(6-(4-morpholinyl)-3-pyridinyl]amino}-4-pyrimidinyl)-2-(1-pyrrolidinyl)-1,3-thiazol-4-yl]phenyl}benzenesulfonamide]
- IC50 [1]: > 1000 nM
- IC50 [2]: 100 to 1000 nM
- IC50 [3]: < 100 nM
- IC50 [4]: > 1000 nM
- IC50 [5]: < 100 nM
- IC50 [6]: > 1000 nM
- IC50 [7]: < 100 nM
- IC50 [8]: < 100 nM
